Results as given in patent US6514732B1, “Process for preparing baccatin” (Indena S.p.A., priority 1998, dated 2003).
“Also recorded” adds a separate entry of the source.

Legend:
Format in all cases: biochemical, Taxus chinensis
[1] = test system: acetyl transferase (acetyl CoA 10-hydroxytaxane-O-acetyl transferase); assay: Substrate specificity of the purified acetyl transferase (conversion of taxane substrates with [2-14C]acetyl CoA); settings: for Conversion, based on the conversion of 10-deacetyltaxuyunnanin C / pkat (enzyme activity with the substrate): Enzyme: Phenylsepharose eluate (225-fold purified); for acetylation / acceptance as substrate by the enzyme (in words): purified acetyl transferase, acetyl donor acetyl CoA
Experimental: A sufficient amount of the enzyme solution to be tested was pipetted into 50 μl of tris buffer (0.8 M, pH 8.5) in an Eppendorf cap. 30 μl of purified acetyl CoA (5 nmol of unlabelled and 0.02 μCi-[2-^14C]acetyl coenzyme A) and 15 nmol of a 3 mM stock solution of 10-deacetyltaxuyunnanin C dissolved in DMSO were then added (for the control only the corresponding amount of DMSO instead of this taxane). The mixture was incubated at 35° C. for 30 minutes and then acidified using 20 μl of 12% H2SO4, the taxuyunnanin C formed was extracted using 600 μl of tert-butyl methyl ether (10 min. in an overhead shaker) and the mixture was then centrifuged (4 min at 14,000 rpm in an Eppendorf centrifuge). The unreacted [2-^14C]acetyl CoA which was still present remained in the aqueous phase. 500 μl of the organic phase were evaporated to dryness in a stream of air, which simultaneously removed any [2-^14C]acetic acid present which, owing to the earlier acidification, was present as the acid and was therefore volatile. Using a scintillation counter (Multipurpose Scintillation Counter LS 6500, from Beckmann) or a thin-layer radioscanner (Automatic TLC Linear Analyser, from Berthold), the type and the amount of the product formed were determined. The former apparatus was used to determine the conversion and thus the activity of the enzyme using the cpm values counted. With the aid of thin-layer chromatography (TLC) (mobile phase: chloroform:acetonitrile 7:3) and the subsequent evaluation using a radioscanner, it was possible to check whether the radioactivity measured using the scintillation counter did indeed correspond to a peak in the region of the Rf value of the expected product.
To check the substrate specificity of the purified acetyl transferase, various compounds having a taxane skeleton were used as substrate.
10-DAB is converted with a rate of conversion of 85%, compared to 10-deacetyltaxuyunnanin C to baccatin III.
Conversion of Various Substrates, Based on the Conversion of 10-deacetyltaxuyunnanin C
Enzyme: Phenylsepharose eluate (225-fold purified)

acetyl transferase [2] = assay: KM value determination for 10-deacetyltaxuyunnanin C (Lineweaver-Burk); settings: phenylsepharose eluate, 225-fold enriched; 30 min at 35° C., pH 8.5
Experimental: To gain information about the affinity of the acetyl transferase to 10-deacetyltaxuyunnanin C, the KM value of the phenylsepharose eluate was determined.
100 μl of acetyl-transferase (0.25 pcat, 40 ng of protein, 225-fold enriched)
30 μl of acetyl coenzyme A (5 nmol, additionally containing 0.02 μCi[2-^14C]acetylCoA)
30 min at 35° C.; evaluation of the radioactivity, which had been extracted using tert-butyl methyl ether, using a scintillation counter.
By plotting the measured results in a doubly reciprocal manner according to Lineweaver and Burk, the KM value for 10-deacetyltaxuyunnanin C was determined graphically to be 23 μM.

acetyl transferase [3] = assay: KM value determination for acetyl coenzyme A (Lineweaver-Burk); settings: phenylsepharose eluate, 225-fold enriched; 30 min at 35° C., pH 8.5
Experimental: The affinity of acetyl transferase to acetyl coenzyme A can be described by the KM value, which was determined using the phenylsepharose eluate.
100 μl of acetyl transferase (0.25 pcat, 40 ng of protein, 225-fold enriched)
5 μl of 3 mM 10-deacetyltaxuyunnanin C (15 nmol)
30 min at 35° C. Evaluation was subsequently carried out by extraction with tert-butyl methyl ether and the use of a scintillation counter. By plotting the measured values in a doubly reciprocal manner according to Lineweaver and Burk, the KM value for acetyl coenzyme A was determined at 61 μM.

Row | Molecule | Conversion, based on the conversion of 10-deacetyltaxuyunnanin C [1] | pkat (enzyme activity with the substrate) [1] | other results
1 | CC(=O)O[C@@]12CO[C@@H]1C[C@H](OC(=O)OC(C)(C)C)[C@@]1(C)C(=O)[C@H](O)C3=C(C)[C@@H](O)C[C@@](O)([C@@H](OC(=O)c4ccccc4)[C@H]21)C3(C)C [7-BOC-10-DAB III] | 2% | 2 pkat | acetylation / acceptance as substrate by the enzyme (in words) [1]: not recognized as substrates
2 | CC(=O)OC12COC1CC(O)C1(C)C(=O)C(O)C3=C(C)C(O)CC(O)(C(OC(=O)c4ccccc4)C21)C3(C)C (stereo not drawn) [10-epi-10-DAB III] | 0% | 0 pkat | –
3 | C=C1C(O)CCC2(C)CC(O)C3=C(C)CC(O)C(C(O)C12)C3(C)C (centres unmarked) [2,5,10,14-Desacetyltaxuyunnanin C, 2,5,10,14-deacetyltaxuyunnanin C] | 53% | 0.59 pkat | –
4 | CC=C(C)C(=O)NC(c1ccccc1)C(O)C(=O)OC1CC2(O)C(OC(=O)c3ccccc3)C3C4(OC(C)=O)COC4CC(O)C3(C)C(=O)C(O)C(=C1C)C2(C)C (centres unmarked) [10-deacetylcephalomannin] | – | – | acetylation / acceptance as substrate by the enzyme (in words) [1]: not acetylated; also recorded: acetylation does not take place
5 | C=C1C(O)CCC2(C)CC(O)C3=C(C)CC(O)C(C(OC(C)=O)C12)C3(C)C (centres unmarked) [5,10,14-Desacetyltaxuyunnanin C, 5,10,14-deacetyltaxuyunnanin C] | 88% | 0.99 pkat | –
6 | CC(=O)SCCNC(=O)CCNC(=O)[C@H](O)C(C)(C)COP(=O)(O)OP(=O)(O)OC[C@H]1O[C@@H](n2cnc3c(N)ncnc32)[C@H](O)[C@@H]1OP(=O)(O)O [acetyl coenzyme A] | – | – | Km (acetyl transferase [3]): 61 µM
7 | CC(=O)O[C@@]12CO[C@@H]1C[C@H](O)[C@@]1(C)C(=O)[C@H](O)C3=C(C)[C@@H](OC(=O)[C@H](O)[C@@H](NC(=O)c4ccccc4)c4ccccc4)C[C@@](O)([C@@H](OC(=O)c4ccccc4)[C@H]21)C3(C)C [10-deacetyltaxol] | – | – | acetylation / acceptance as substrate by the enzyme (in words) [1]: not acetylated; also recorded: acetylation does not take place
8 | 2,10,14-deacetyltaxuyunnanin C [2,10,14-Desacetyltaxuyunnanin C] | 81% | 0.91 pkat | –
9 | CC(=O)O[C@@]12CO[C@@H]1C[C@H](O)[C@@]1(C)C(=O)[C@H](O)C3=C(C)[C@@H](O)C[C@@](O)([C@@H](OC(=O)c4ccccc4)[C@H]21)C3(C)C [10-Desacetylbaccatin III, 10-deacetylbaccatin III] | 80% | 0.9 pkat | Conversion, based on the conversion of 10-deacetyltaxuyunnanin C ([1]; listed as 10-DAB): 85%

Now from value to molecule, other results behind:

Row | Conversion, based on the conversion of 10-deacetyltaxuyunnanin C [1] | pkat (enzyme activity with the substrate) [1] | Molecule | other results
10 | 102% | 1.14 pkat | 10,14-deacetyltaxuyunnanin C [10,14-Desacetyltaxuyunnanin C] | –
11 | 38% | 0.43 pkat | CC(=O)O[C@@]12CO[C@@H]1C[C@H](O)[C@@]1(CO)C(=O)[C@H](O)C3=C(C)[C@@H](O)C[C@@](O)([C@@H](OC(=O)c4ccccc4)[C@H]21)C3(C)C [19-Hydroxy-10-DAB III, 19-hydroxy-10-DAB III] | –
12 | 0% | 0 pkat | CC[Si](CC)(CC)O[C@H]1C[C@H]2OC[C@@]2(OC(C)=O)[C@H]2[C@H](OC(=O)c3ccccc3)[C@]3(O)C[C@H](O)C(C)=C([C@@H](O)C(=O)[C@]12C)C3(C)C [7-TES-10-DAB III] | acetylation / acceptance as substrate by the enzyme (in words) [1]: not recognized as substrates
13 | 100% | 1.12 pkat | C=C1[C@@H](OC(C)=O)CC[C@@]2(C)C[C@H](O)C3=C(C)C[C@H](OC(C)=O)[C@@H]([C@@H](OC(C)=O)[C@H]12)C3(C)C [10-Desacetyltaxuyunnanin C, 10-deacetyltaxuyunnanin C] | Km (acetyl transferase [2]): 23 µM
14 | 97% | 1.09 pkat | CC(=O)OC12COC1CC(O)C1(C)C(=O)C(O)C3=C(C)C(O)C(O)C(O)(C(OC(=O)c4ccccc4)C21)C3(C)C (centres unmarked) [14-Hydroxy-10-DAB III, 14-hydroxy-10-deacetylbaccatin III] | –
